Activity calls are given as the source filed them. The calls are words filed in the database; no cut-off is given here.
Tests used:
Ribonuclease pancreatic [1] = molecular target: T1, Ribonuclease pancreatic (Bos taurus, UniProt P61823); assay: Inhibition of bovine pancreatic RNase A using 2',3'-cCMP as substrate by Lineweaver-Burk plot analysis
T1 sequence (P61823 whole entry): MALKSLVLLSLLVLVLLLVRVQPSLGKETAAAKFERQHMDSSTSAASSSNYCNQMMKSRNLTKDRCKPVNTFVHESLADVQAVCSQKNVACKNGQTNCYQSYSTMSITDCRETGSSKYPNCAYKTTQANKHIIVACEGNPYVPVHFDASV

[2] = molecular target: T2, Ribonuclease pancreatic (Bos taurus) (UniProt P61823); assay: Inhibition of bovine pancreatic RNase A assessed as increase in RNA band intensity using RNA as substrate incubated for 3 hrs followed by RNA addition for 30 mins by ethidium bromide staining based agarose gel electrophoresis; conditions: time 210.0 min
T2 sequence (whole entry): T1 sequence (P61823 whole entry)

Ribonuclease pancreatic [3] = molecular target: T1, Ribonuclease pancreatic; assay: Competitive inhibition of bovine pancreatic RNase A using 2',3'-cCMP as substrate by Lineweaver-Burk plot analysis
Ribonuclease pancreatic [4] = molecular target: T1, Ribonuclease pancreatic; assay: Inhibition of bovine pancreatic RNase A assessed as reduction in CpG cleavage by spectrophotometric analysis
Ribonuclease pancreatic [5] = molecular target: T1, Ribonuclease pancreatic; assay: Non-competitive inhibition of bovine pancreatic RNase A using 2',3'-cCMP as substrate by Lineweaver-Burk plot analysis

Row | Structure (SMILES) | inhibition [2] | Ki (Ribonuclease pancreatic [3]) | also measured
1 | Cc1cn([C@H]2C[C@H](NC(=O)[C@@H](CC(=O)O)NC(=O)[C@H]3O[C@@H](n4cnc5c(N)ncnc54)[C@H](O)[C@@H]3O)[C@@H](CO)O2)c(=O)[nH]c1=O | – | – | Ki (Ribonuclease pancreatic [1]): 32 µM
2 | O=C(O)c1cc(-n2cc(C(=O)O)nn2)cc(-n2cc(C(=O)O)nn2)c1 | Active | 28 µM | –
3 | O=C(Nc1ccc(Cc2ccc(NC(=O)c3cccc([N+](=O)[O-])c3)c(C(=O)O)c2)cc1C(=O)O)c1cccc([N+](=O)[O-])c1 | – | – | Ki (Ribonuclease pancreatic [4]): 21 µM
4 | O=C(O)C1CCN(C(=O)c2cccc(C(=O)N3CCC(C(=O)O)CC3)c2)CC1 | Active | – | Ki (Ribonuclease pancreatic [5]): 617 µM
5 | O=C(O)c1cn(-c2cccc(-n3cc(C(=O)O)nn3)c2)nn1 | Active | 60 µM | –
6 | OCc1cn(-c2cccc(-n3cc(CO)nn3)c2)nn1 | Active | 79 µM | –
7 | O=S(=O)(O)Cc1cn(-c2cccc(-n3cc(CS(=O)(=O)O)nn3)c2)nn1 | Active | 32 µM | –
8 | O=S(=O)(O)CCn1cc(COC[C@@H]2O[C@H](Cn3cc(CS(=O)(=O)O)nn3)[C@@H](O)[C@H]2O)nn1 | – | – | Ki (Ribonuclease pancreatic [1]): 29 µM
9 | Cc1cn([C@H]2C[C@H](NC(=O)[C@@H](CC(=O)O)NC(=O)[C@H]3O[C@@H](n4ccc(=O)[nH]c4=O)[C@H](O)[C@@H]3O)[C@@H](CO)O2)c(=O)[nH]c1=O | – | – | Ki (Ribonuclease pancreatic [1]): 66.7 µM
10 | O=C(O)c1cc(C(=O)N2CCC(C(=O)O)CC2)cc(C(=O)N2CCC(C(=O)O)CC2)c1 | Active | 272 µM | –
11 | O=C(O)c1cc(-n2cc(CS(=O)(=O)O)nn2)cc(-n2cc(CS(=O)(=O)O)nn2)c1 | Active | 12 µM | –
12 | O=C(O)c1cc(-n2cc(CO)nn2)cc(-n2cc(CO)nn2)c1 | Active | 44 µM | –
